According to patent publication US8507454B2, “Methods and unit dose formulations for the inhalation administration of aminoglycoside antibiotics” (priority 2001, dated 2013):
“Also recorded” adds a separate entry of the source.

Experiments:
Gram-negative bacteria = settings: Neu 1976; cited from earlier work
P. aeruginosa isolates = settings: initial sputum cultures, Children's Hospital CF Center, Seattle, 1993; cited from earlier work
[1] = Example 3: sputum tobramycin pharmacokinetics; type: in vivo; settings: both sexes, human, inhaled, both formulations (300 mg TOBI, 420 mg TSI), read-out: Individual estimates of sputum half-life, range
Procedure: A comparison was made of the safety, pharmacokinetics, aerosol delivery characteristics, and nebulization time of the conventional dose and inhalation delivery system (5 mL ampoule containing 300 mg tobramycin and 11.25 mg sodium chloride in sterile water for injection (TOBI® tobramycin solution for inhalation, Chiron Corporation, Seattle, Wash.), pH 6.0; administered with a PART LC PLUS™ jet nebulizer with a DeVilbiss PulmoAide™ compressor set to deliver an output pressure of 20 psi—the “control delivery system”) with a dose of 420 mg Tobramycin Solution for Inhalation at 120 mg/mL (excipient 3.5 mL of ¼ normal saline adjusted to a pH of 6.0±0.5; 420 mg in 3.5 mL) delivered by the PAM LC PLUS™ jet nebulizer with a Invacare MOBILAIRE™ compressor set to deliver an output pressure of 35 psi (the “experimental delivery system”). […]
Sputum Tobramycin Concentrations: Sputum samples were expectorated by patients from a deep cough and collected before day 1 dosing (predose) and at 0.25, 1, 2, 4, and 8 h after the end of the nebulization period. […] The concentration of tobramycin was analyzed using reversed-phase high-performance liquid chromatography (HPLC) with ultraviolet detection. […] After addition of 600 μL of 60/40 acetonitrile/water (v/v), 50 μL was analyzed by HPLC. […]

[2] = Example 3: serum tobramycin pharmacokinetics; type: in vivo; settings: both sexes, human, inhaled, both formulations (300 mg TOBI, 420 mg TSI), read-out: Individual estimates of serum half-life, range
Procedure: A comparison was made of the safety, pharmacokinetics, aerosol delivery characteristics, and nebulization time of the conventional dose and inhalation delivery system (5 mL ampoule containing 300 mg tobramycin and 11.25 mg sodium chloride in sterile water for injection (TOBI® tobramycin solution for inhalation, Chiron Corporation, Seattle, Wash.), pH 6.0; administered with a PART LC PLUS™ jet nebulizer with a DeVilbiss PulmoAide™ compressor set to deliver an output pressure of 20 psi—the “control delivery system”) with a dose of 420 mg Tobramycin Solution for Inhalation at 120 mg/mL (excipient 3.5 mL of ¼ normal saline adjusted to a pH of 6.0±0.5; 420 mg in 3.5 mL) delivered by the PAM LC PLUS™ jet nebulizer with a Invacare MOBILAIRE™ compressor set to deliver an output pressure of 35 psi (the “experimental delivery system”).
The study was designed as an open label, randomized, single-dose, multicenter, two treatment, active-control, and parallel trial. […]
Serum Tobramycin Concentrations: Blood samples were collected at predose and at 0.167, 1, 2, 4, 6, and 8 h after the end of the nebulization period. […] Concentrations of tobramycin in serum were analyzed with a modified fluorescence polarization immunoassay (FPIA) method using the Abbott TDx®/TDxFLx® System. […] The lower limit of quantitation was 0.050 μg/mL. […]

[3] = Example 1: urine tobramycin recovery; type: in vivo, human; settings: 7 days after prestudy or previous TOBI dose, LOQ 1.0 μg/mL
Procedure: Urine specimens were collected and combined in a 24-hour collection container during the 12 hours before treatment (−12-0 hour period) and during 0-8 hour and 8-24 hour collection periods after treatment according to instructions provided in the Study Manual. Total urine volume for the collection period was recorded, and a 10 mL aliquot from each urine collection was retained and frozen for later analysis of urine tobramycin concentration.
The recovery of tobramycin in urine (in […]) during 0-8 hour and 8-24 hour collection periods was calculated as follows. urine tobramycin recovery (μg)=urine volume (mL)·urine tobramycin concentration (μg/mL)
Urine tobramycin recovery was normalized for each collection period according to TOBI dose as follows. dose-normalized urine tobramycin recovery (μg/mg)=[urine tobramycin recovery (μg)÷TOBI dose (mg)]
The percent of the TOBI dose excreted in urine in the 24-hour period following treatment was calculated as follows. % tobramycin excreted in urine =[(urinary recovery in μg÷1000 μg/mg)÷TOBI dose in mg]·100%.
Tobramycin concentrations in urine were measured by Abbott TDxFLx® assay [urine lower limit of quantitation (LOQ)=1.0 μg/mL].

P. aeruginosa = settings: cited from earlier work

For NC[C@H]1O[C@H](O[C@H]2[C@H](O)[C@@H](O[C@H]3O[C@H](CO)[C@@H](O)[C@H](N)[C@H]3O)[C@H](N)C[C@@H]2N)[C@H](N)C[C@@H]1O [tobramycin], the “Concentrations effective in inhibiting the growth of many Gram-negative bacteria” value (Gram-negative bacteria) is listed as < 4 µg/mL, the “MICs of 90% of isolates” value (P. aeruginosa isolates) is listed as ≤ 16 µg/mL and the “MICs of 98% of all isolates” value (P. aeruginosa isolates) is listed as ≤ 128 µg/mL. For the same compound, the half-life [1] was 0.48 to 9.47 h, the half-life [2] was 1.1 to 6.8 h and the “Measurable predose urine tobramycin concentration during period listed, individual patients” value ([3]; after prestudy tobramycin) was “Per 1 - 1.82 μg/mL; also recorded: Per 1 - 3.14 μg/mL; also recorded: Per 1 - 1.74 μg/mL; also recorded: Per 1 - 2.72 μg/mL; also recorded: Per 1 - 3.80 μg/mL”. The “Measurable predose urine tobramycin concentration during period listed, individual patients” value ([3]; after previous TOBI 30 mg) was “Per 3 - 1.20 μg/mL”, the “Measurable predose urine tobramycin concentration during period listed, individual patients” value ([3]; after previous TOBI 60 mg) was “Per 3 - 1.30 μg/mL; also recorded: Per 3 - 13.22 μg/mL” and the “Measurable predose urine tobramycin concentration during period listed, individual patients” value ([3]; after previous TOBI 90 mg) was “Per 2 - 3.10 μg/mL”. The “Measurable predose urine tobramycin concentration during period listed, individual patients” value ([3]; after previous TOBI 300 mg) was “Per 2 - 2.06 μg/mL; also recorded: Per 2 - 2.58 μg/mL; also recorded: Per 2 - 1.48 μg/mL; also recorded: Per 2 - 1.58 μg/mL; also recorded: Per 2 - 2.28 μg/mL; also recorded: Per 3 - 2.70 μg/mL; also recorded: Per 3 - 1.16 μg/mL; also recorded: Per 3^c - 1.12 μg/mL; also recorded: Per 3 - 2.08 μg/mL”, the “Average decrease in P. aeruginosa density, Week 0 to Week 20” value (P. aeruginosa; 300 mg inhaled tobramycin twice daily, 28 days on/28 days off, Ramsey 1999) was 0.8 log10 and the “Average decrease in P. aeruginosa density, Week 0 to Week 4” value (P. aeruginosa; 300 mg inhaled tobramycin twice daily, Ramsey 1999) was 1.9 log10. The “Sputum density of P. aeruginosa” value (P. aeruginosa; 600 mg tid aerosolized tobramycin, 71 CF patients, crossover trial, Ramsey 1993) was “significant reduction”.
